Article doi:10.1101/2025.08.18.25333496, “A Phase 0 Window of Opportunity Trial of LB100, a Protein Phosphatase 2A Inhibitor, in Patients with Recurrent Gliomas” (medRxiv, 2025)
Read-outs that look alike come from different tables or passages of the source.

Tests used:
[1] = parameters: method as in Lixte Biotechnology, Investigators Brochure, unpublished; settings: ref Lixte Biotechnology, Investigators Brochure, unpublished, cited from earlier work
[2] = in vivo
Procedure: After LB100 infusion and craniotomy all patients were evaluated in person 1–3 days following surgery and followed for at least 30 days after infusion of LB100 for toxicities and adverse events (AEs). All adverse events, including clinically significant abnormal findings on laboratory evaluations, regardless of severity, were followed until return to baseline or stabilization of event. Adverse events were documented from the first study intervention (study day 1) through the final safety visit (study day 30). Beyond 30 days only adverse events which were serious and related to the study intervention were recorded. The descriptions and grading scales found in the revised NCI Common Terminology Criteria for Adverse Events (CTCAE) version 5.0 were utilized for AE reporting.
During the first post-operative week after infusion with LB100, an EKG, renal function tests and liver function tests were performed. Two to three weeks following discharge from the hospital, all patients were given a physical exam and additional blood testing. At approximately 30 days post-craniotomy patients were questioned to determine whether any new AEs had occurred, and any ongoing AEs were followed up on. Prior to removal from the study, at approximately 30 days following drug infusion, all subjects completed a final safety evaluation.

clinical [3] = settings: human, in vivo
Procedure: (§1) In this current trial, a single dose of LB100 was infused over two hours (+/− 15 minutes) starting two to four hours before surgery.
(§2) Blood and plasma samples for PK measurements were also performed on all participants. Samples were collected at the following time points: 1) Pre-dose; 2) End of infusion (2 hours post-start); 3) 30 minutes post LB100 infusion completion; 4) 1 hour post LB-100 infusion completion; 5) 2 hours post LB100 infusion completion; 6) 4 hours post LB100 infusion completion; 7) 8 hours post LB100 infusion completion.
(§3) LB100 concentration in clinical PK samples (plasma and tumor tissue), was quantified using a validated and robust LC-MS/MS assay developed at the NCI that used LB-105 as an internal standard. This analysis was performed blinded to tumor type. Plasma samples were pre-treated with 50 mM NaOH and tissue samples were homogenized in acetonitrile at a concentration of 100 mg/mL Briefly, samples were mixed with aqueous 10 mM triethylamine (TEA) containing internal standard followed by protein precipitation with 0.5% TEA in acetonitrile. Samples were processed alongside calibration and quality control (QC) standards, ranging from 2–1000 ng/mL (~7.5–3700 nM) and 3–10,000 pg/mg (~1.2–3700 nM) for plasma and brain tissue, respectively. […] The analyte and internal standard were chromatographically separated using a Waters Acquity UPLC BEH C18 (1.7-μm, 2.1×50mm) on a Waters Acuity UPLC system (Waters Corp., Milford, MA). A gradient mobile phase consisting of 5 mM ammonium bicarbonate (aq) and acetronitrile was flowed at a rate of 0.5 to 1 mL/min; the injection volume was 5 uL. After chromatographic separation, the compounds were eluted and detected using a AbSciex QTrap 5500 tandem mass spectrometer in positive ion electrospray mode; MRM transitions were m/z 269.1 → 101.0 and 283.2 → 115.1 for LB-100 and LB-105, respectively.
(§4) Plasma PK was analyzed via a non-compartmental approach using Phoenix WinNonlin v8.3 (Certara Corp, Cary, NC) that was validated per FDA 21CFR Part 11 Regulations. The maximum plasma concentration (Cmax) and the time of Cmax (Tmax) were reported as observed values. A rate constant of the terminal phase, λz, was calculated from the concentration-time curve using uniformly weighted least-squares as the estimation procedure and acceptance criteria of i) r^2 > 0, ii) includes >3-time points. […] Estimated pharmacokinetic parameters included half-life (t1/2; inverse of λz), volume of distribution (Vd; dose divided by product of λz and AUCINF), and clearance (CL; dose divided by AUCINF). Drug concentrations in brain tissue samples were reported and % brain penetrance was approximated via the ratio of brain tissue drug concentration to plasma drug concentrations from matched timepoints post-tissue collection.

[4] = biological target: protein phosphatase 2A (PP2A); settings: cited from earlier work
[5] = parameters: method as in PMID 28039265; settings: dose level above the established safe dose; cited from earlier work
[6] = human, in vivo
Procedure: as §1, §2, §3, §4

PP2A = tested on: PP2A; parameters: method as in Lixte Biotechnology, Investigators Brochure, unpublished; settings: mice, brain region with intact BBB; ref Lixte Biotechnology, Investigators Brochure, unpublished; cited from earlier work
clinical [7] = assay: clinical; parameters: species or system human; settings: in vivo
Procedure: Glioma tissue sampling to detect and quantify LB100 was performed post-dose in each patient, with resection time points from the end of the LB100 infusion recorded. After ensuring adequate diagnostic tissue, remaining tissue was used for PK analysis. Briefly, removed tissues were rinsed with saline immediately (to remove LB100-containing blood and avoid falsely elevated LB100 measurements), then divided, flash-frozen, and stored at −80°C for future batch analysis.
This analysis was performed blinded to tumor type.

[8] = one-time administration equivalent to human maximum tolerated dose

In the case of `CN1CCN(C(=O)C2C(C(=O)O)[C@H]3CC[C@@H]2O3)CC1` (some centres unmarked) [LB100], the “mean Cmax in plasma” value ([1]; animal studies) is given as 1110~3664 ng/ml, the “mean Cmax in the brain” value ([1]; animal studies) is given as 17.4~43.5 ng/kg and the “animals with LB100 detected in implanted tumor” value [1, 8] is given as 1 of 3. The “animals with LB100 detected in normal brain and liver” value [1, 8] was 2 of 3, the “AEs related to LB100” value ([2]; human, 30 days) was “No AEs were thought to be related to LB100” and the “total number of AEs” value ([2]; human, 30 days) was 30. For the same compound, the “AEs rated as serious (grade 3 or 4)” value [2] was “Four”, the Vd (clinical [3]) was 21.7 L and the clearance (clinical [3]) was 195 mL/min. For the same compound, the AUC(0-inf) (clinical [3]; AUCinf) was 414 ng·h/mL, the Cmax (clinical [3]) was 146 ng/mL and the Cmax (clinical [3]; range) was 95 to 179 ng/mL. It also gave a half-life (clinical [3]; T1/2) of 1.2 h, a Tmax (clinical [3]; TMAX) of 2.1 h and a Tmax (clinical [3]; Tmax, range) of 2.07 to 2.63 h. For the same compound, the AUC(0-inf) (clinical [3]; plasma drug exposure (AUCINF), range) was 325 to 468 ng·h/mL, the half-life (clinical [3]; plasma half-life (T1/2), range) was 1.09 to 1.46 h and the IC50 ([4]; in glial cell lines, read-out: IC50 of PP2A) was 200 to 400 nM. The IC50 ([4]; previously established, read-out: minimum IC50 targeting protein phosphatase 2A) was 200 nM, the “patients with grade 3 increases in creatinine clearance” value [5] was 2 of 4 and the T1/2 [6] was 1.27 (13%) hr. For the same compound, the “plasma concentration of LB100 at the time of biopsy, range” value [6] was 30.81 to 132.26 nM, the “PP2A enzymatic activity in the lateral habenula” value (PP2A) was “significantly decrease PP2A enzymatic activity” and the “% Brain Pen (ratio of brain:plasma concentrations)” value (clinical [7]; human) was 0.31% (159%). For the same compound, the Kp (clinical [7]; human) was 0.0031, the concentration at 5.68 h (clinical [7]; human) was 0.51 ng/g and the “concentration of LB100 in tumor tissue, range” value (clinical [7]; human) was 0 to 0.67 nM. The “percent of drug penetration into the brain, range” value (clinical [7]; human) was 0% to 1.04% and the “difference in drug levels between contrast and non-contrast regions of tumor” value (clinical [7]) was “no significant difference in drug levels”.
